Common to all, as to type: in vivo, soybean
The test system of assay [1] is Williams-NMU-1 M2 seedlings. As to the kind of experiment: Hydroponic selection of M2 seeds with Compound 1. The note with it: 100 ppb. On the procedure:
Four Modified Hydropot Solo units were prepared as described in the Detailed Description by filling the planting tanks with a 5 cm layer of pea gravel followed by a 10 cm layer of fine vermiculite. M2 seeds of the William-NMU-1 were densely planted (approx. 16,600 seeds per square meter) by placing the seeds in a single horizontal layer on top of the vermiculite and then covering the seeds with a second level 2.5 cm layer of vermiculite. The nutrient solution reservoir was filled with tap water supplemented with 100 ppb of Compound 1 as the selective agent. Plant tanks were irrigated with the Compound 1 solution for four 30 minute periods per day beginning at 12 midnight, 8 AM, 12 noon, and 4 pm. […] The W20 plant was gently removed from the from the hydroponic planting tank and transplanted into a 20 cm pot containing a standard peat-based potting mixture. […] This observation led the applicant to believe that W20 represented a new class of resistant mutants. W20 was allowed to reach maturity under greenhouse conditions and produce an M3 line that was also referred to as W20.
M2 seeds of the Williams-NMU-1 treatment (Table II) were densely planted (approximately 16,600 seeds Per m2) on top of a level 7 cm layer of granular vermiculite supported by the upper chamber of the planting tank of the previously described large hydroponic selection system. […]

Assay [2] has as its system Williams 82. As to the kind of experiment: Test C preemergence (soil) sulfonylurea application. The note with it: 19 days after treatment. The text has this: (§1) W20, a line homozygous for a dominant sulfonylurea-resistance mutation, was compared to Williams 82 in terms of response to preemergence application of three sulfonylurea herbicides. The experimental unit consisted of a single 18 cm pot filled with soil (Sassafras loamy sand with 0.8% organic matter and pH 6.7) in which 6 seeds of a given soybean line were planted 2 cm deep. After planting, each pot was sprayed (using a conveyor belt spray apparatus to emulate field application) with one of 22 different treatments including a check sprayed with AGWT (90% acetone, 4% glycerol, 4% water, 2% Tween-20), and 21 different herbicide treatments using AGWT as a carrier. The herbicide treatments included 7 different concentrations (Table IX) each of three sulfonyl-ureas: Compound 5, Compound 4, and Compound 1. Each herbicide x line treatment was replicated three times. After herbicide treatment, pots were transferred to a greenhouse and arranged in a randomized complete block design. Nineteen days after treatment, each pot was rated visually for herbicide injury using the scale described previously. For each herbicide, analysis of variance on injury ratings was performed separately. Fisher's least significant difference (LSD) was used to determine the significance of line mean differences at each rate using the 95% level of confidence.

Assay [3] relates to W20. The assay is described as above. The note with it: 19 days after treatment.
From the text: as §1

Assay [4] has as its system Williams 82. As to the kind of experiment: Postemergence herbicide spray test of W4-4 (Table VII-A). The settings on record: two weeks after treatment. An outline of the steps:
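Soybean lines grown in 10 cm pots to second-trifoliolate stage, then postemergence herbicide-sprayed, two replicates; controls got carrier only (water with 0.25% X77). Percent injury rated at two weeks; means and SE by per-herbicide ANOVA, line differences tested by Fisher's LSD at 95% confidence.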

Turning to `COc1nc(C)nc(NC(=O)NS(=O)(=O)c2ccccc2Cl)n1` [Compound 1, 2-chloro-N-[[(4-methoxy-6-methyl-1,3,5-triazin-2-yl)amino]carbonyl]benzenesulfonamide], the “effect on surrounding seedlings” value in assay [1] (Modified Hydropot Solo units, twelve days after planting) is “lethal to the surrounding seedlings”. The “effect on background of wild type seedlings” value in assay [1] (large hydroponic unit, 8 days after planting) is on record as “uniformly inhibited”. The “% Injury” value in assay [2] (WM 82, 0.3 g/ha preemergence) turned out to be 30%; in assay [2] (WM 82, 1 g/ha preemergence) it was 50%; in assay [2] (WM 82, 3 g/ha preemergence) it was 73%; in assay [2] (WM 82, 10 g/ha preemergence), 95%; in assay [2] (WM 82, 30 g/ha preemergence), 100%; in assay [2] (WM 82, 100 g/ha preemergence) it was 100%. The “% Injury” value in assay [2] (WM 82, 300 g/ha preemergence) turned out to be 100%; in assay [3] (W20, 0.3 g/ha preemergence), 0%; in assay [3] (W20, 1 g/ha preemergence), 0%; in assay [3] (W20, 3 g/ha preemergence), 3%; in assay [3] (W20, 10 g/ha preemergence), 3%; in assay [3] (W20, 30 g/ha preemergence), 18%. Further, the “% Injury” value in assay [3] (W20, 100 g/ha preemergence) was found to be 63%; in assay [3] (W20, 300 g/ha preemergence) it was 65%.
Turning to `COC(=O)c1cccnc1S(=O)(=O)NC(=O)Nc1nc(OC)cc(OC)n1` [Compound 8, Methyl 2-[[[[(4,6-dimethoxy-2-pyrimidinyl)amino]carbonyl]amino]sulfonyl]-3-pyridinecarboxylate], the mean % injury in assay [4] (WM82, 4 g/ha postemergence) came out at 90%; in assay [4] (WM82, 16 g/ha postemergence) it was 95%; in assay [4] (WM82, 32 g/ha postemergence), 95%.

The values are drawn from patent publication US5084082A, “Soybean plants with dominant selectable trait for herbicide resistance” (priority 1990, dated 1992).
